# Where two headings read alike, the source gives them in different places.
# How the values were obtained:
# [1] = target: T1, TRPML1 (Homo sapiens, UniProt Q9GZU1); assay: Cellular TRPML1 assay (FLIPR, GCaMP6f calcium read-out); format: cell-based
# T1 construct: expressed in transfected cells; host or cells: HEK T-REx cells stably expressing GCaMP6f and TRPML1
# Summary of the method: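 Read-out is GCaMP6f fluorescence over 300 s after compound addition in Ca2+-free Tyrode's buffer, final DMSO 0.5%, on FLIPR Tetra. Cells are HEK T-REx stably co-expressing the indicator and TRPML1, plated 24 h earlier in Optimem + 0.5% FBS and pre-incubated ~10 min at room temperature.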
# [2] = system: TFEB; assay: TFEB translocation assay (TFEB reporter in U2OS cells, imaging); format: cell-based; details: Homo sapiens; U2OS cell line with TFEB reporter, 2 hours incubation, nucleus to cytoplasm ratio, normalized to Torin-1; read-out: TFEB Translocation pEC50 (converted)
# Summary of the method: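 Activity expresses the mean nuclear-to-cytosolic reporter ratio scaled between DMSO (0%) and Torin-1 (100%) controls. Read-out came from high-content imaging of fixed, Hoechst-counterstained U2OS cells carrying mRFP-tagged TFEB after 2 h compound exposure at 37 °C in Opti-MEM with 0.015% Tween 80 and 0.5% DMSO.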
# [3] = HEKT-REx/GCaMP6f/TRPML1 cells, FLIPR TETRA, kinetic response over 300 seconds, read-out: TRPML1 FLIPR pEC50 (converted)
# T1 sequence (Q9GZU1 whole entry): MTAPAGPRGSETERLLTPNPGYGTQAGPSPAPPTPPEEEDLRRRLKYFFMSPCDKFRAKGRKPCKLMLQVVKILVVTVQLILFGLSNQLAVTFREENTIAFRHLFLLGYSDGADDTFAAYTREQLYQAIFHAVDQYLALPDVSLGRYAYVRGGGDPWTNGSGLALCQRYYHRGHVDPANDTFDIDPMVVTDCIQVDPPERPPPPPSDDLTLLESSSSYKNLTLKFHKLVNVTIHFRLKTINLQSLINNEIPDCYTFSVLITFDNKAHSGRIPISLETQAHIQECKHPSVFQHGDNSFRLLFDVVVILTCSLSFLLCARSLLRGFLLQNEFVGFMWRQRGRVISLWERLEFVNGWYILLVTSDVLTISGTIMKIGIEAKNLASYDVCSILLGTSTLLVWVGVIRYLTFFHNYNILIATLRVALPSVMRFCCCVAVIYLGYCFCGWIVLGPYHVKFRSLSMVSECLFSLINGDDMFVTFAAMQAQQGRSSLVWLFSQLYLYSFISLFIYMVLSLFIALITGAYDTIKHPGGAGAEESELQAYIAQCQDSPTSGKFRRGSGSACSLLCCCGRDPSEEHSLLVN
"EC50 [1, 3] [nM]",SMILES,EC50 [2] [nM],EC50 [1] [nM]
10 to 1000,"CCCc1oc(N2CCC3CCCC32)nc1C(=O)Nc1cc(F)c(OC2CC3C[C@H]3C2)c(F)c1 (stereo partly drawn) [Example 275, N-(4-(cis-bicyclo[3.1.0]hexan-3-yloxy)-3,5-difluorophenyl)-2-(hexahydrocyclopenta[b]pyrrol-1(2H)-yl)-5-propyloxazole-4-carboxamide]",10 to 1000,
1000 to 10000,"CC1(C)CN(c2nc(C(=O)Nc3ccc(OC4CCCC4(F)F)c(F)c3)c(CC(F)(F)F)o2)CCO1 (stereo not shown) [Example 4, N-{4-[(2,2-difluorocyclopentyl)oxy]-3-fluorophenyl}-2-(2,2-dimethylmorpholin-4-yl)-5-(2,2,2-trifluoroethyl)-1,3-oxazole-4-carboxamide]",10 to 1000,
10 to 1000,"CCc1oc(N2CC(CC)(OC)C2)nc1C(=O)Nc1cc(C)c(O[C@@H]2C[C@@H]3C[C@@H]3C2)c(F)c1 [Example 227, N-(4-(cis-bicyclo[3.1.0]hexan-3-yloxy)-3-fluoro-5-methylphenyl)-5-ethyl-2-(3-ethyl-3-methoxyazetidin-1-yl)oxazole-4-carboxamide]",10 to 1000,
,"O=C(Nc1cc(F)c(N2C3CCCC2CC3)c(F)c1)c1nc(N2CC3COCC3C2)oc1CC(F)(F)F (stereo not shown) [Example 201, N-(4-(8-azabicyclo[3.2.1]octan-8-yl)-3,5-difluorophenyl)-2-(tetrahydro-1H-furo[3,4-c]pyrrol-5(3H)-yl)-5-(2,2,2-trifluoroethyl)oxazole-4-carboxamide]",10 to 1000,10 to 1000
10 to 1000,"CCC1(CC)CN(c2nc(C(=O)Nc3cc(C)c(O[C@@H]4C[C@@H]5C[C@@H]5C4)c(F)c3)c(CCF)o2)C1 [Example 285, N-(4-(cis-bicyclo[3.1.0]hexan-3-yloxy)-3-fluoro-5-methylphenyl)-2-(3,3-diethylazetidin-1-yl)-5-(2-fluoroethyl)oxazole-4-carboxamide]",10 to 1000,
10 to 1000,"O=C(Nc1ccc(O[C@@H]2C[C@@H]3C[C@@H]3C2)c(F)c1)c1nc(N2CCC3CCCC32)oc1CC(F)(F)F (stereo partly drawn) [Example 162, N-(4-(cis-bicyclo[3.1.0]hexan-3-yloxy)-3-fluorophenyl)-2-(hexahydrocyclopenta[b]pyrrol-1(2H)-yl)-5-(2,2,2-trifluoroethyl)oxazole-4-carboxamide]",10 to 1000,
10 to 1000,"O=C(Nc1cc(F)c(OC2CC3C[C@H]3C2)c(F)c1)c1nc(N2C[C@H]3CCO[C@H]3C2)oc1CC(F)(F)F (stereo partly drawn) [Example 179, N-(4-(cis-bicyclo[3.1.0]hexan-3-yloxy)-3,5-difluorophenyl)-2-((3aR,6aR)-hexahydro-5H-furo[2,3-c]pyrrol-5-yl)-5-(2,2,2-trifluoroethyl)oxazole-4-carboxamide]",10 to 1000,
1000 to 10000,"O=C(Nc1ccc(OC2CCCC2(F)F)c(F)c1)c1nc(N2CCOCC2)oc1CC(F)(F)F (stereo not shown) [Example 6, N-(4-((2,2-difluorocyclopentyl)oxy)-3-fluorophenyl)-2-morpholino-5-(2,2,2-trifluoroethyl)oxazole-4-carboxamide]",10 to 1000,
1000 to 10000,"CC1(C)CCCC1Oc1ccc(NC(=O)c2nc(N3CCCC3)oc2CC(F)(F)F)cc1F (stereo not shown) [Example 55, N-(4-((2,2-dimethylcyclopentyl)oxy)-3-fluorophenyl)-2-(pyrrolidin-1-yl)-5-(2,2,2-trifluoroethyl)oxazole-4-carboxamide]",1000 to 10000,
10 to 1000,"CCC1(CC)CN(c2nc(C(=O)Nc3cc(O)c(O[C@@H]4C[C@@H]5C[C@@H]5C4)c(F)c3)c(CC(F)(F)F)o2)C1 [Example 269, N-(4-(cis-bicyclo[3.1.0]hexan-3-yloxy)-3-fluoro-5-hydroxyphenyl)-2-(3,3-diethylazetidin-1-yl)-5-(2,2,2-trifluoroethyl)oxazole-4-carboxamide]",10 to 1000,
10 to 1000,Cc1cc(NC(=O)c2nc(N3CC(C)(CO)C3)oc2CC(F)(F)F)cc(F)c1O[C@@H]1C[C@@H]2C[C@@H]2C1 [Example 128],10 to 1000,
10000 to 100000,"Cc1oc(N2CCOCC2)nc1C(=O)Nc1ccc(N2CCCCC2)c(F)c1 [Example 116, N-(3-fluoro-4-(piperidin-1-yl)phenyl)-5-methyl-2-morpholinooxazole-4-carboxamide]",10000 to 100000,
10 to 1000,"CCC1(CC)CN(c2nc(C(=O)Nc3cc(C)c(O[C@@H]4C[C@@H]5C[C@@H]5C4)c(O)c3)c(CC(F)(F)F)o2)C1 [Example 262, N-(4-(cis-bicyclo[3.1.0]hexan-3-yloxy)-3-hydroxy-5-methylphenyl)-2-(3,3-diethylazetidin-1-yl)-5-(2,2,2-trifluoroethyl)oxazole-4-carboxamide]",10 to 1000,
10 to 1000,"O=C(Nc1cc(F)c(OC2CC3CC(C3)C2)c(F)c1)c1nc(N2CCCC2)oc1CCF (stereo not shown) [Example 279, N-(4-(bicyclo[3.1.1]heptan-3-yloxy)-3,5-difluorophenyl)-5-(2-fluoroethyl)-2-(pyrrolidin-1-yl)oxazole-4-carboxamide]",10 to 1000,
10 to 1000,"O=C(Nc1ccc(O[C@@H]2C[C@@H]3C[C@@H]3C2)c(F)c1)c1nc(N2CC3CC3C2)oc1CC(F)(F)F (stereo partly drawn) [Example 156, 2-(3-azabicyclo[3.1.0]hexan-3-yl)-N-(4-(cis-bicyclo[3.1.0]hexan-3-yloxy)-3-fluorophenyl)-5-(2,2,2-trifluoroethyl)oxazole-4-carboxamide]",10 to 1000,
10 to 1000,"CCC1(CC)CN(c2nc(C(=O)Nc3ccc(OC4CC5CC(C5)C4)c(F)c3)c(CCF)o2)C1 (stereo not shown) [Example 283, N-(4-(bicyclo[3.1.1]heptan-3-yloxy)-3-fluorophenyl)-2-(3,3-diethylazetidin-1-yl)-5-(2-fluoroethyl)oxazole-4-carboxamide]",10 to 1000,
10 to 1000,"CCC1(CC)CN(c2nc(C(=O)Nc3cc(O)c(OC4CC5CC(C5)C4)c(Cl)c3)c(CC(F)(F)F)o2)C1 (stereo not shown) [Example 261, N-(4-(bicyclo[3.1.1]heptan-3-yloxy)-3-chloro-5-hydroxyphenyl)-2-(3,3-diethylazetidin-1-yl)-5-(2,2,2-trifluoroethyl)oxazole-4-carboxamide]",10 to 1000,
10 to 1000,"O=C(Nc1ccc(O[C@@H]2C[C@@H]3C[C@@H]3C2)c(F)c1)c1nc(N2CCCC2)oc1CC(F)(F)F [Example 74, N-(4-{cis-bicyclo[3.1.0]hexan-3-yloxy}-3-fluorophenyl)-2-(pyrrolidin-1-yl)-5-(2,2,2-trifluoroethyl)oxazole-4-carboxamide]",10 to 1000,
,"COC1(C)CN(c2nc(C(=O)Nc3cc(F)c(N4C5CCCC4CC5)c(F)c3)c(CC(F)(F)F)o2)C1 [Example 207, N-(4-(8-azabicyclo[3.2.1]octan-8-yl)-3,5-difluorophenyl)-2-(3-methoxy-3-methylazetidin-1-yl)-5-(2,2,2-trifluoroethyl)oxazole-4-carboxamide]",10 to 1000,10 to 1000
1000 to 10000,"O=C(Nc1ccc(OC2CCOC2)c(F)c1)c1nc(N2CCCC2)oc1CC(F)(F)F (stereo not shown) [Example 47, N-[3-fluoro-4-(oxolan-3-yloxy)phenyl]-2-(pyrrolidin-1-yl)-5-(2,2,2-trifluoroethyl)oxazol-4-carboxamide]",1000 to 10000,
,"CC1(C)CN(c2nc(C(=O)Nc3cc(F)c(N4C5CCCC4CC5)c(F)c3)c(CC(F)(F)F)o2)C1 [Example 200, N-(4-(8-azabicyclo[3.2.1]octan-8-yl)-3,5-difluorophenyl)-2-(3,3-dimethylazetidin-1-yl)-5-(2,2,2-trifluoroethyl)oxazole-4-carboxamide]",10 to 1000,10 to 1000
10 to 1000,"CCC1(OC)CN(c2nc(C(=O)Nc3cc(C)c(OC4CC5CC(C5)C4)c(F)c3)c(CCF)o2)C1 (stereo not shown) [Example 277, N-(4-(bicyclo[3.1.1]heptan-3-yloxy)-3-fluoro-5-methylphenyl)-2-(3-ethyl-3-methoxyazetidin-1-yl)-5-(2-fluoroethyl)oxazole-4-carboxamide]",10 to 1000,
1000 to 10000,"O=C(Nc1cc(F)c2c(c1)CCN2C1CC2CC2C1)c1nc(N2CCCC2)oc1CC(F)(F)F (stereo not shown) [Example 315, N-(1-(bicyclo[3.1.0]hexan-3-yl)-7-fluoroindolin-5-yl)-2-(pyrrolidin-1-yl)-5-(2,2,2-trifluoroethyl)oxazole-4-carboxamide]",10 to 1000,
10 to 1000,"CCC1(COC)CN(c2nc(C(=O)Nc3cc(F)c(O[C@@H]4C[C@@H]5C[C@@H]5C4)c(F)c3)c(CC(F)(F)F)o2)C1 [Example 165, N-(4-(cis-bicyclo[3.1.0]hexan-3-yloxy)-3,5-difluorophenyl)-2-(3-ethyl-3-(methoxymethyl)azetidin-1-yl)-5-(2,2,2-trifluoroethyl)oxazole-4-carboxamide]",10 to 1000,
1000 to 10000,"O=C(Nc1ccc(N2CCC(F)(F)CC2)c(F)c1)c1nc(N2CC3(C2)CC(F)(F)C3)oc1CC(F)(F)F [Example 77, 2-{6,6-difluoro-2-azaspiro[3.3]heptan-2-yl}-N-[4-(4,4-difluoropiperidin-1-yl)-3-fluorophenyl]-5-(2,2,2-trifluoroethyl)oxazole-4-carboxamide]",1000 to 10000,

SMILES,"EC50 [1, 3] [nM]",EC50 [2] [nM],EC50 [1] [nM]
"CCc1oc(N2CC3(C2)CC(F)(F)C3)nc1C(=O)Nc1cc(F)c(N2CC3CC(C3)C2)c(F)c1 [Example 259, N-(4-(3-azabicyclo[3.1.1]heptan-3-yl)-3,5-difluorophenyl)-2-(6,6-difluoro-2-azaspiro[3.3]heptan-2-yl)-5-ethyloxazole-4-carboxamide]",1000 to 10000,10 to 1000,

# — patent US12098145B2 (Libra Therapeutics, Inc., priority 2022, dated 2024)
